A short description of data set [1]: Three-day MTT cell growth inhibition assay, 1532CPTX. It is filed as cell-based, human. To be noted: human, 1532CPTX cells.
Data set [2] concerns 1532CPTX. The description is as above. The data set is classed as cell-based, human. The conditions noted are these: Homo sapiens, 72 h, 3 days.
The subject of data set [3] is human prostate cells (PC3, PC3-M, 1532NPTX, 1542NPTX, 1532CPTX, 1542CPTX). The experiment in a line: Cell invasion, panel of human prostate cells. It is filed as cell-based. On the procedure: Human prostate metastatic cells (PC3, PC3-M), and HPV-transformed normal (1532NPTX, 1542NPTX) and primary cancer (1532CPTX, 1542CPTX) cells, were treated with 10 µM genistein (G), KBU2046 (46), or vehicle (CO), and after 3 days, cell invasion was measured. Values are mean ± SEM of a single experiment in replicates of N = 4, with similar findings in multiple separate experiments (also N = 4). c Single-cell migration. Cell migration was measured after treatment for 3 days with 10 µM KBU2046 or vehicle (control). Values are mean ± SEM of a single experiment in replicates of N = 24, with similar findings in a separate experiment (also N = 24). *Denotes Student’s t-test P value <0.05, compared to controls. d Human cord blood hematopoietic stem cell colony formation assay. Values are the mean ± SD number of total, CFU-GM, CFU-GEMM, or BFU-E colonies at 14 days after treatment with KBU2046, from a single experiment in replicates of N = 2. e Induction of estrogen-responsive genes. Values are the mean ± SD of a single experiment, with similar results seen in a separate experiment, both in replicates of N = 2
Boyden chamber cell invasion assays were performed as previously described by us[30], using either denatured collagen (BD Biosciences) or type IV human collagen (BD Biosciences), with all experiments repeated, each in N = 4 replicates. […]

Data set [4] can be described thus: Plasma KBU2046 concentration after dosing in chow. The data set is classed as in vivo. The conditions noted are these: Balb/c athymic, mouse, oral. How it is done: For determination of pharmacokinetic (PK) parameters, KBU2046 was administered by either intravenous injection or oral gavage to groups of N = 3 CD1(ICR) mice at 0 (i.e., vehicle only), 25, or 100 mg/kg. Blood was collected into EDTA by terminal cardiac puncture before drug administration (i.e., baseline) and at 5, 10, 15, 30, 45, 60, 90, 120, 180, 240, 360, 480, 960, 1440 min after administration. In separate experiments, as described above, Balb/c athymic mice were dosed with KBU2046 incorporated into chow for 35 days, after which blood was collected by terminal cardiac puncture. Resultant plasma (~250 μl/mouse) was stored at −80 °C.
Plasma KBU2046 concentrations were measured in duplicate by liquid chromatography-tandem mass spectrometry after sample preparation by solid-phase extraction. […] The mass-to-charge ratios of the precursor-to-product ion reactions monitored were 243.5 → 125.1 for KBU2046 and 257.0 → 165.0 for the internal standard. […]

Data set [5] concerns the target T1, MKK4 (Homo sapiens, UniProt P45985, S257E/T261E).
T1 construct: made in house; host or cells: KRX E. coli
The data set can be described thus: Fluorescence-based thermal shift assay, MKK4. The data set is classed as binding. How it is done: Fluorescent thermal shift, isothermal titration calorimetry, and biolayer interferometry assays[46] were all performed as described by us using MEK4EE (37-399, S257E, T261E) cloned into pMCSG7 and KRX Competent E. coli cells (Promega Inc.) and above denoted full-length HSP90B and CDC37 vectors and Rosetta BL-21 and BL-21 DE-3 competent E. coli cells, respectively. DARTS assays were conducted as described, using equimolar amounts of CDC37 and HSP90β, thermolysin digestion, and silver stain visualization (ProteoSilver Silver Stain Kit, Sigma-Aldrich).
Supplementary Figure 9. […] (a) Depiction of […]
established MKK4 pathway regulating human PCa cell metastasis. […]
to MKK4, as measured by fluorescence-based thermal shift assay. Values are the mean±SD (of N=2 replicates) increase in melting temperature (ΔTm) of purified recombinant MKK4 induced by the indicated concentrations of KBU2046 or genistein. […]
in an in vitro kinase assay. The indicated concentrations of KBU2046 were added to recombinant activated MKK4, and its ability to phosphorylate kinase dead p38α MAPK (K53A) was measured by Western blot for total (p38 MAPK) and phosphorylated (pp38 MAPK) forms of […]
HSP27 in cells. PC3-M cells were pre-treated for 24 hours with 50 µM KBU2046 or genistein, as indicated, then with TGFβ, and Western blot performed. […]

SMILES strings stand for the structures. Where two headings read alike, the source gives them in different places.

The term viability denotes the share of living cells, or the viability signal relative to a control. In general, IC20 refers to the concentration at which the effect reaches the 20% level. A word on the IC50: it is the point on the concentration scale where inhibition reaches its midpoint. Higher therefore signals lower potency.

T1 sequence (P45985 37-399 S257E/T261E): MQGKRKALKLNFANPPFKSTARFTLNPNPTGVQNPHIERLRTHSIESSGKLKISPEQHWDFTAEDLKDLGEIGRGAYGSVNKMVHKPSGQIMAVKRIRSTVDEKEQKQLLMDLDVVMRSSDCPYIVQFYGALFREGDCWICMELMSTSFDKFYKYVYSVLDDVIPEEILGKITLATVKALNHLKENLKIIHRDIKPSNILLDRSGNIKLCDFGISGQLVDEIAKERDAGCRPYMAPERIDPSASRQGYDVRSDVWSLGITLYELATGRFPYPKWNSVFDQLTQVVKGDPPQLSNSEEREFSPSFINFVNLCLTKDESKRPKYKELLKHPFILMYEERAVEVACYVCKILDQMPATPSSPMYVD

`O=C1c2ccccc2OCC1c1ccc(F)cc1` (racemic) [KBU2046, (±)-3(4-fluorophenyl)chroman-4-one] showed a viability at 3 days, 50 µM in data set [1] of 99.4%. Further, the IC20 in data set [2] is > 50 µM. In addition, in data set [2], the IC50 was > 50 µM. Also, in data set [3] (10 µM, 3 days), the cell invasion entry is reported as “inhibits cell invasion with efficacy equal-to-or-greater-than that of genistein”. In data set [3] (after 3 days treatment of cells), this compound displayed an effect upon invasion of 50%. In addition, the concentration at 35 days in data set [4] (150 mg/kg, mice whose metastasis were suppressed by 92%, read-out: plasma concentration) is 24 nM; in data set [4] (athymic mice, KBU2046 in chow, doses that decreased metastasis, read-out: plasma concentrations) it was 1.1 to 24 nM. In addition, in data set [5], the “binding to MKK4” value is given as “did not bind to MKK4”.
